Source: patent US20090131391A1, “INHIBITOR FOR DIFFERENTIATION OF HEMATOPOIETIC PRECURSOR CELLS” (OOO "MBF", priority 2006, published 2009)

Assays:
[1] = tested on: colony-forming cells in the spleen, CFC-S; assay: Exogenous spleen colony assay (CFC-S) after agent and gamma-irradiation of donor mice; assay type: in vivo
Protocol: Assay of effect of various doses of ionizing radiation on hematopoiesis. 950 female mice of two lines—(CBA×C 57 B 1/6) F1 and (DBA×C 57B1/6) F1—were used in this study. Radiation was administered using a radiation therapy machine “Luch-1” utilizing gamma-rays ^60Co at 0.9 Gy/min. 9-phenyl-symmetric-octahydroselenoxanthene was administered orally in doses 1.0, 5.0, 10 and 20 mg/kg in 0.2 ml of oil. Agent was administered 1, 3 or 7 days prior to radiation treatment of 1.5 Gy; bone marrow was then extracted from donor mice, and cell suspension was injected into lethally irradiated (8 Gy) recipient mice of the same line. Colony-forming activity was assayed by number of exogenous spleen colonies when mice were sacrificed on day 9.
300 female mice of line (CBA×C57B1/6) F1 were used in the experiment. Radiation was administered using a radiation therapy machine “Luch-1” utilizing gamma-rays ^60Co at 0.9 Gy/min. 9-phenyl-symmetric-octahydroselenoxanthene was administered orally in doses 1.0, 5.0, 10 and 20 mg/kg in 0.2 ml of oil 7 days prior to radiation treatment at following doses: 1.5, 2.0, 3.0 and 5.0 Gy. Bone marrow was extracted 10-15 minutes after the treatment and the cell suspension was injected into lethally irradiated (8 Gy) recipient mice. Colony-forming activity was assayed by number of exogenous spleen colonies when mice were sacrificed on day 9.

[2] = tested on: polychromatophil mouse erythrocytes (line C57 B1); assay: Micronuclei in peripheral polychromatophil erythrocytes after electromagnetic irradiation; assay type: in vivo
Protocol: Protective properties of 9-phenyl-symmetric-octahydroselenoxanthene against non-ionizing radiation were examined by studying formation of micronuclei in polychromatophil mouse erythrocytes (line C57 B1). Micronuclei of the interphase nucleus are acentric chromosome fragments. Animals were exposed to electromagnetic radiation in millimeter wavelength range, frequency 39.5 GHz, and wavelength 7.5 mm for 1 hour. Flux density was approximately 3 microW/cm^2, which is 300 fold less than levels posing danger of overheating due to field energy absorption to a biological object.
5 mg/kg of 9-phenyl-symmetric-octahydroselenoxanthene was administered to group 1 (n=5) orally in 0.2 ml of oil 7 days prior to irradiation. Group 2 (n=5) received 0.2 ml of oil only and untreated mice were used as controls. Mice were sacrificed 1 day after irradiation and number of micronuclei was assayed in peripheral polychromatophil erythrocytes (150,000 cells per sample).

CD34+ cells = assay: Flow cytometry of CD34+ cells in bone marrow and peripheral blood; assay type: in vivo, mouse
Protocol: The effects of the proposed agent (9-phenyl-symmetric-octahydroselenoxanthene) on mouse hematopoiesis were assayed by flow cytometry. Relative number of CD34+ cells and the density of the antigen were assayed in peripheral blood cells (80,000 cells per sample) and bone marrow cells (40,000 cells per sample). As reported earlier, administration of the proposed agent has no effect on relative number of less differentiated stem cells (CD34+).

[3] = tested on: LLC (Lewis lung carcinoma); assay: Lewis lung carcinoma growth and metastasis with Platidiam (cisplatin) treatment; assay type: in vivo, C57B1/6 mice
[4] = tested on: Lewis lung carcinoma (LLC); assay: Lewis lung carcinoma growth index and lung metastases with localized irradiation; assay type: in vivo, mice; conditions: for Average number of lung metastases: day 21, surviving animals
Protocol: The number of lung metastases was assayed on day 21 in surviving animals.
As in the previous series, tumor cells were injected subcutaneously into right hind leg at 2.0×10^6 cells/mouse (total of 40 mice).

[5] = Agent administered 1 day prior to analysis, no irradiation
[6] = Agent administered 7 days prior to analysis + irradiation, 1.5 Gy
[7] = Agent administered 7 days prior to analysis, no irradiation
[8] = Inhibitor + localized irradiation
[9] = concurrent use with localized irradiation

## 9-phenyl-symmetric-octahydroselenoxanthene
[1]; 5.0 mg/kg 7 days prior, 1.5 Gy
  cell survival compared with the untreated control: not significantly different
[1]; 5.0 mg/kg 7 days prior, all radiation doses excluding 1.5 Gy (2.0, 3.0, 5.0 Gy)
  Cell survival relative to the irradiated control: 2 fold
[1]; 5.0 mg/kg of the agent alone at various time points prior to bone marrow extraction
  effect on CFC-S number in donor mice: no effect
[1]; 5 mg/kg orally, 1 day prior to irradiation 1.5 Gy
  Number of colonies formed per 10^5 of bone marrow cells, M ± m: 6.4 ± 0.5 per 10^5 of bone marrow cells
[1]; 5 mg/kg orally, 1 day prior, no irradiation
  Number of colonies formed per 10^5 of bone marrow cells, M ± m: 12.5 ± 0.6 per 10^5 of bone marrow cells
[1]; 5 mg/kg orally, 3 days prior to irradiation 1.5 Gy
  Number of colonies formed per 10^5 of bone marrow cells, M ± m: 9.1 ± 0.5 per 10^5 of bone marrow cells
[1]; 5 mg/kg orally, 3 days prior, no irradiation
  Number of colonies formed per 10^5 of bone marrow cells, M ± m: 10.7 ± 0.4 per 10^5 of bone marrow cells
[1]; 5 mg/kg orally, 7 days prior to irradiation 1.5 Gy (Table 1)
  Number of colonies formed per 10^5 of bone marrow cells, M ± m: 12.7 ± 0.7 per 10^5 of bone marrow cells
[1]; 5 mg/kg orally, 7 days prior, no irradiation
  Number of colonies formed per 10^5 of bone marrow cells, M ± m: 11.1 ± 0.7 per 10^5 of bone marrow cells
[1]; 5.0 mg/kg, 1.5 Gy
  persistence of the CFC-S adaptive response: 7 days
[1]; 5.0 mg/kg, 1 day prior to 1.5 Gy (minimal effect)
  increase in CFC-S compared to the irradiated control: 2 fold
[1]; 5.0 mg/kg, 7 days prior to 1.5 Gy (maximal effect)
  decrease of the effects of radiation: 3 fold
[1]; 5 mg/kg, 7 days prior to radiation dose 1.5 Gy (Table 2)
  Number of colonies formed per 10^5 of bone marrow cells, M ± m: 9.2 ± 0.2 per 10^5 of bone marrow cells
[1]; 5 mg/kg, 7 days prior to radiation dose 2.0 Gy
  Number of colonies formed per 10^5 of bone marrow cells, M ± m: 3.6 ± 0.3 per 10^5 of bone marrow cells
[1]; 5 mg/kg, 7 days prior to radiation dose 3.0 Gy
  Number of colonies formed per 10^5 of bone marrow cells, M ± m: 2.1 ± 0.1 per 10^5 of bone marrow cells
[1]; 5 mg/kg, 7 days prior to radiation dose 5.0 Gy
  Number of colonies formed per 10^5 of bone marrow cells, M ± m: 0.6 ± 0.06 per 10^5 of bone marrow cells
[2]; 5 mg/kg orally 7 days prior to electromagnetic irradiation 39.5 GHz, 1 hour, assayed 1 day after irradiation
  Frequency of micronuclei-containing polychromatophil erythrocytes × 10^3: 6.0 ± 2.10 × 10^3
[2]; electromagnetic irradiation
  protection against non-ionizing radiation: confers protection
CD34+ cells; Agent administered 1 day prior to analysis + irradiation, 1.5 Gy
  Total CD34+ cells in bone marrow, 10^7, Mean: 2.1 10^7
CD34+ cells; [5]
  Total CD34+ cells in bone marrow, 10^7, Mean: 4.0 10^7
  Total CD34+ cells per 1 ml of peripheral blood, 10^3, Mean: 6.8 10^3
CD34+ cells; [6]
  Total CD34+ cells in bone marrow, 10^7, Mean: 1.0 10^7
  Total CD34+ cells per 1 ml of peripheral blood, 10^3, Mean: 3.8 10^3
CD34+ cells; [7]
  Total CD34+ cells in bone marrow, 10^7, Mean: 4.0 10^7
  Total CD34+ cells per 1 ml of peripheral blood, 10^3, Mean: 8.0 10^3
CD34+ cells; blood cells, after 7 days
  number of more differentiated progenitors: decreases
CD34+ cells; blood cells, three experiments
  portion of CD34+ cells on the blood: does not change
CD34+ cells; by day 7 after the agent administration, p<0.05
  density of CD34 antigen on the cell surface: increases
CD34+ cells; flow cytometry
  effect on relative number of less differentiated stem cells (CD34+): no effect
CD34+ cells; peripheral blood and bone marrow composition after irradiation
  effect on differentiation of progenitor cells: blocks differentiation of progenitor cells of the granulocyte/macrophage lineage
[3]; administered 30 minutes prior to chemotherapy with Platidiam (cisplatin)
  effect on tumor growth and number of lung metastases: did not exhibit any significant effect
[4]; [8]
  Growth index: 4.6 ± 0.8
  Average number of lung metastases: 13.4 ± 1.8
[4]; Inhibitor + localized irradiation, 1 day
  Growth index: 1
[4]; Inhibitor + localized irradiation, 4 days
  Growth index: 1.4 ± 0.1
[4]; Inhibitor + localized irradiation, 6 days
  Growth index: 1.7 ± 0.2
[4]; Inhibitor + localized irradiation, 8 days
  Growth index: 1.84 ± 0.3
[4]; Inhibitor + localized irradiation, 11 days
  Growth index: 2.65 ± 0.6
[4]; Inhibitor alone
  Growth index: 7.7 ± 1.7
  Average number of lung metastases: 33.5 ± 2.5
[4]; Inhibitor alone, 1 day
  Growth index: 1
[4]; Inhibitor alone, 4 days
  Growth index: 1.64 ± 0.1
[4]; Inhibitor alone, 6 days
  Growth index: 3.3 ± 0.25
[4]; Inhibitor alone, 8 days
  Growth index: 3.9 ± 0.7
[4]; Inhibitor alone, 11 days
  Growth index: 5.3 ± 0.7
[4]; combination with irradiation
  growth indexes of agent alone versus agent + irradiation: not significantly different
[4]; [9]
  effect on metastasis: does not significantly increase metastasis
  protection of tumor cells from effects of radiation: does not protect the tumor cells from effects of radiation
[4]; inhibitor alone vs control
  effect on tumor growth: does not affect tumor growth
[4]; non-irradiated and irradiated tumor-bearing mice, day 21
  influence on metastatic processes: does not influence metastatic processes significantly

## N.N.[Cl][Pt][Cl] [Platidiam (cisplatin), cisplatin]
[3]; C57B1/6 mice with LLC
  Avg number of lung metastases M ± m: 6.2 ± 0.7
  Tumor mass, g M ± m: 4.5 ± 0.5 g
  Tumor volume, sm^3 M ± m: 4.6 ± 0.6 sm^3
  anti-tumor effect (tumor mass and lung metastases): slight but consistent anti-tumor effect
